# Assay results reported in patent US4317768A, “Dihydropyridine derivatives as stabilizers for vinyl chloride polymers” (priority 1977, dated 1982).
# Entries after “also recorded” stand apart in the source; their conditions may differ.
# Legend:
# [1] = Colour of the resin after each passage in a blower-extruder; settings: blower-extruder
# Description: (2) Examination of the colour of the resin after each passage (3 in all) in a blower-extruder, the mould being a 250 ml cylindrical flask.
# Four resins where tested, the first containing 0.2% of 2-phenyl-indole and the others 0.2%, 0.03% and 0.015% of compound 1 respectively.
# [2] = Stabilization of plastified vinyl resins (pressed plates); settings: plastified resin
# Description: This study was carried out by pressing plates from sheets which had been mixed for 5 minutes at 180° C., the pressing also lasting 5 minutes but at 170° C.
# The same parameters as hereabove were studied, namely the duration of the stability of the colour, the duration of the thermostability and the colour of the pressed plate.
# [3] = Antioxidant power on a polyvinyl chloride resin, Metrastat oven, 210° C.
# Description: By direct comparison, on a polyvinyl chloride resin, of the antioxidant power of Compound 1 of the invention and that of an antioxidant known as one of the most valuable and frequently used in polyvinyl chloride, namely 2,6-diterbutyl-4-methyl-phenol.
# The antioxidant power of Compound 1 was compared to that of 2,6-diterbutyl-4-methyl-phenol (Compound 2) by using the following resin:
# The same trials were carried out in a Metrastat oven at 210° C.
# [4] = Comparison with stabilizer G1, rigid co-polymer, 0.5 part, 185° C.
# Source text: (b) Comparison with stabilizer G1
# Stabilizer G1 is a mixture of 1,4-butanediol-β-aminocrotonate and of β-aminocrotonate of alcohols containing from 16 to 18 carbon atoms.
structure (smiles),measurement,setting,value
"C=CCOC(=O)C1=C(C)NC(C)=C(C(=O)OCC=C)C1 [Compound 1, 2,6-Dimethyl-3,5-dicarboallyloxy-1,4-dihydropyridine]","stability of colour compared to 2-phenyl-indole, in words",[1],markedly superior; also recorded: at all times superior to 2-phenyl-indole used at a concentration of 0.2%
same,"stability of colour compared to 2-phenyl-indole, in words",[1]; listed as compound 1,excellent behaviour
same,"influence on stability / basic colour of the plate, in words",[2],favourable influence on the stability of the plate; also recorded: favourable influence on the basic colour
same,time of burning (B),[3]; 0.05 part,40 '
same,"coloration, GARDNER scale","[3]; 0.05 part, 0 to 10 min",1
same,"coloration, GARDNER scale","[3]; 0.05 part, 10 to 20 min",1
same,"coloration, GARDNER scale","[3]; 0.05 part, 20 to 25 min",1
same,"coloration, GARDNER scale","[3]; 0.05 part, 25 to 30 min",1
same,"coloration, GARDNER scale","[3]; 0.05 part, 35 to 40 min",> 10
same,time of burning (B),[3]; 0.1 part,38 '
same,"coloration, GARDNER scale","[3]; 0.1 part, 0 to 10 min",1
same,"coloration, GARDNER scale","[3]; 0.1 part, 10 to 20 min",1
same,"coloration, GARDNER scale","[3]; 0.1 part, 20 to 25 min",1
same,"coloration, GARDNER scale","[3]; 0.1 part, 25 to 30 min",1
same,"coloration, GARDNER scale","[3]; 0.1 part, 35 to 40 min",< 10
same,time of burning (B),[3]; 0.2 part,39 '
same,"coloration, GARDNER scale","[3]; 0.2 part, 0 to 10 min",1
same,"coloration, GARDNER scale","[3]; 0.2 part, 10 to 20 min",1
same,"coloration, GARDNER scale","[3]; 0.2 part, 20 to 25 min",1
same,"coloration, GARDNER scale","[3]; 0.2 part, 25 to 30 min",1
same,"coloration, GARDNER scale","[3]; 0.2 part, 35 to 40 min",< 9
same,time of burning (B),[3]; 0.3 part,39 '
same,"coloration, GARDNER scale","[3]; 0.3 part, 0 to 10 min",1
same,"coloration, GARDNER scale","[3]; 0.3 part, 10 to 20 min",1
same,"coloration, GARDNER scale","[3]; 0.3 part, 20 to 25 min",1
same,"coloration, GARDNER scale","[3]; 0.3 part, 25 to 30 min",1
same,"coloration, GARDNER scale","[3]; 0.3 part, 35 to 40 min",< 9
same,time of burning (B),[3]; 0.4 part,38 '
same,"coloration, GARDNER scale","[3]; 0.4 part, 0 to 10 min",1
same,"coloration, GARDNER scale","[3]; 0.4 part, 10 to 20 min",1
same,"coloration, GARDNER scale","[3]; 0.4 part, 20 to 25 min",1
same,"coloration, GARDNER scale","[3]; 0.4 part, 25 to 30 min",1
same,time of burning (B),[3]; 0.5 part,38 '
same,"coloration, GARDNER scale","[3]; 0.5 part, 0 to 10 min",1
same,"coloration, GARDNER scale","[3]; 0.5 part, 10 to 20 min",1
same,"coloration, GARDNER scale","[3]; 0.5 part, 20 to 25 min",1
same,"coloration, GARDNER scale","[3]; 0.5 part, 25 to 30 min",1
same,time of burning (B),[3]; 1.0 part,37 '
same,"coloration, GARDNER scale","[3]; 1.0 part, 0 to 10 min",1
same,"coloration, GARDNER scale","[3]; 1.0 part, 10 to 20 min",1
same,"coloration, GARDNER scale","[3]; 1.0 part, 20 to 25 min",1
same,"coloration, GARDNER scale","[3]; 1.0 part, 25 to 30 min",1
same,"antioxidant power, Compound 1 vs Compound Z, in words",[3]; 210° C.,markedly superior to Compound Z
same,"coloration, GARDNER scale",[4]; 0 min,1
same,"coloration, GARDNER scale",[4]; 2 min,1
same,"coloration, GARDNER scale",[4]; 4 min,2
same,"coloration, GARDNER scale",[4]; 6 min,6
same,"coloration, GARDNER scale",[4]; 8 min,10
same,"coloration, GARDNER scale",[4]; 10 min,13
same,"coloration, GARDNER scale",[4]; 12 min,17
